DBAASP
≈ marks a conversion by molar mass, not a printed value.

Key:
Assay in all cases: ≥ marks a high value that may be exact or a test limit, other limits are often not marked, values filed in µg/mL are converted to µM
Escherichia coli = system: Escherichia coli
Staphylococcus aureus = system: Staphylococcus aureus
Bacillus cereus = system: Bacillus cereus
Pseudomonas aeruginosa = system: Pseudomonas aeruginosa
[1] = system: Staphylococcus aureus ATCC 25923
[2] = system: Pseudomonas aeruginosa PAO1
Escherichia coli UB1005 = system: Escherichia coli UB1005

Compound	MIC (Escherichia coli)	MIC (Bacillus cereus)	MIC (Pseudomonas aeruginosa)	also measured
CC(C)C[C@H](NC(=O)[C@@H](N)Cc1ccccc1)C(=O)NCC(=O)N[C@@H](CCCCN)C(=O)N[C@H](C(=O)N[C@@H](Cc1ccccc1)C(=O)N[C@@H](CCCCN)C(=O)NCC(=O)N[C@@H](C)C(=O)N[C@@H](CO)C(=O)N[C@@H](CCCCN)C(=O)N[C@H](C(=O)N[C@@H](Cc1ccccc1)C(=O)NCC(=O)N[C@@H](C)C(=O)N[C@H](C(=O)N[C@@H](Cc1ccccc1)C(=O)NCC(=O)N[C@@H](CCCCN)C(=O)N[C@H](C(=O)O)C(C)C)C(C)C)C(C)C)C(C)C [FLGKVFKGASKVFGAVFGKV]	15.3 µM (≈ 32 µg/mL)	≥ 61.3 µM		MIC (Staphylococcus aureus): > 123 µM
CC(C)[C@H](NC(=O)CNC(=O)CNC(=O)[C@@H](NC(=O)[C@@H](N)Cc1ccccc1)C(C)C)C(=O)N[C@@H](C)C(=O)N[C@@H](CO)C(=O)N[C@@H](CCCCN)C(=O)N[C@H](C(=O)N[C@H](C(=O)N1CCC[C@H]1C(=O)N[C@@H](CO)C(=O)N[C@H](C(=O)N[C@@H](Cc1ccc(O)cc1)C(=O)N[C@@H](CS)C(=O)N[C@@H](CCCCN)C(=O)N[C@H](C(=O)N[C@@H](CO)C(=O)N[C@@H](CCCCN)C(=O)N[C@@H](CCCCN)C(=O)O)C(C)C)C(C)C)C(C)C)C(C)C [FVGGVASKVVPSVYCKVSKK]	> 123 µM	≥ 123 µM		
CC[C@H](C)[C@H](NC(=O)CN)C(=O)NCC(=O)N[C@@H](Cc1cnc[nH]1)C(=O)N[C@@H](Cc1ccccc1)C(=O)N[C@@H](CC(C)C)C(=O)N[C@@H](Cc1cnc[nH]1)C(=O)N[C@@H](CCCCN)C(=O)N[C@H](C(=O)N[C@@H](CCCCN)C(=O)N[C@@H](CO)C(=O)N[C@@H](Cc1ccccc1)C(=O)NCC(=O)N[C@@H](CCCCN)C(=O)N[C@@H](CO)C(=O)N[C@@H](Cc1c[nH]c2ccccc12)C(=O)N[C@H](C(=O)NCC(=O)N[C@@H](CCC(=O)O)C(=O)N[C@H](C(=O)N[C@@H](CCSC)C(=O)N[C@@H](CC(N)=O)C(=O)N[C@@H](CO)C(N)=O)[C@@H](C)CC)[C@@H](C)CC)C(C)C [GIGHFLHKVKSFGKSWIGEIMNS]	19 µM (≈ 48.9 µg/mL)		19 µM (≈ 48.9 µg/mL)	MIC (Staphylococcus aureus): 76 µM (≈ 195 µg/mL)
CC[C@H](C)[C@H](NC(=O)[C@H](Cc1ccccc1)NC(=O)[C@H](CO)NC(=O)[C@H](CCCCN)NC(=O)[C@H](Cc1ccccc1)NC(=O)[C@@H](N)CCCCN)C(=O)N[C@@H](CCCCN)C(=O)N[C@@H](CCCCN)C(=O)N[C@@H](CC(C)C)C(=O)N[C@H](C(=O)N[C@@H](CO)C(=O)N[C@@H](CCCCN)C(=O)N[C@@H](Cc1ccccc1)C(=O)N[C@@H](CC(C)C)C(=O)N[C@@H](Cc1cnc[nH]1)C(=O)N[C@@H](CO)C(=O)N[C@@H](C)C(=O)N[C@@H](CCCCN)C(=O)N[C@@H](CCCCN)C(=O)N[C@@H](Cc1ccccc1)C(N)=O)[C@@H](C)O [KFKSFIKKLTSKFLHSAKKF]			5.18 µM (≈ 12.5 µg/mL)	
CC[C@H](C)[C@H](NC(=O)[C@H](Cc1ccccc1)NC(=O)[C@H](CO)NC(=O)[C@H](CCCCN)NC(=O)[C@H](Cc1c[nH]c2ccccc12)NC(=O)[C@@H](N)CCCCN)C(=O)N[C@@H](CCCCN)C(=O)N[C@@H](CCCCN)C(=O)N[C@@H](CC(C)C)C(=O)N[C@H](C(=O)N[C@@H](CO)C(=O)N[C@@H](CCCCN)C(=O)N[C@@H](Cc1ccccc1)C(=O)N[C@@H](CC(C)C)C(=O)N[C@@H](Cc1cnc[nH]1)C(=O)N[C@@H](CO)C(=O)N[C@@H](C)C(=O)N[C@@H](CC(N)=O)C(=O)N[C@@H](CCCCN)C(=O)N[C@@H](Cc1ccccc1)C(N)=O)[C@@H](C)O [KWKSFIKKLTSKFLHSANKF]			2.56 µM (≈ 6.25 µg/mL)	
CC[C@H](C)[C@H](NC(=O)[C@@H](NC(=O)[C@H](C)NC(=O)[C@@H]1CCCN1C(=O)[C@@H](NC(=O)[C@@H](NC(=O)[C@H](CCCCN)NC(=O)[C@H](CO)NC(=O)[C@H](C)NC(=O)[C@H](CC(C)C)NC(=O)[C@H](CO)NC(=O)CNC(=O)[C@@H](NC(=O)[C@@H](NC(=O)CNC(=O)[C@@H](N)CC(C)C)C(C)C)C(C)C)C(C)C)C(C)C)C(C)C)C(=O)N[C@@H](CO)C(=O)N[C@@H](CCCCN)C(=O)N[C@H](C(=O)N[C@@H](CCCCN)C(=O)O)C(C)C [LGVVGSLASKVVPAVISKVK]	> 131 µM	≥ 131 µM		
CC(C)C[C@H](NC(=O)[C@H](C)NC(=O)[C@@H](NC(=O)CNC(=O)[C@H](CCCCN)NC(=O)[C@@H](NC(=O)[C@@H](NC(=O)[C@H](CO)NC(=O)[C@H](CO)NC(=O)CNC(=O)[C@@H](NC(=O)[C@@H]1CCCN1C(=O)[C@H](CCCCN)NC(=O)[C@@H](NC(=O)[C@@H](N)CO)C(C)C)C(C)C)C(C)C)C(C)C)[C@@H](C)O)C(=O)N[C@H](C(=O)N[C@@H](CCCCN)C(=O)N[C@@H](Cc1ccccc1)C(=O)N[C@@H](Cc1ccccc1)C(=O)NCC(=O)O)C(C)C [SVKPVGSSVVKGTALVKFFG]	> 128 µM	≥ 128 µM		
CC(C)C[C@H](NC(=O)[C@H](Cc1ccc(O)cc1)NC(=O)[C@@H]1CCCN1C(=O)[C@@H]1CCCN1C(=O)[C@H](CCCCN)NC(=O)[C@@H]1CCCN1C(=O)[C@@H](N)C(C)C)C(=O)N1CCC[C@H]1C(=O)N[C@@H](CCCN=C(N)N)C(=O)N1CCC[C@H]1C(=O)N[C@@H](CCCN=C(N)N)C(=O)N1CCC[C@H]1C(=O)N1CCC[C@H]1C(=O)N[C@@H](CCCN=C(N)N)C(=O)N[C@@H](CCCN=C(N)N)C(=O)N[C@@H](CCCCN)C(=O)N[C@@H](Cc1ccc(O)cc1)C(=O)N[C@@H](CC(N)=O)C(=O)N[C@@H](CCCN=C(N)N)C(N)=O [VPKPPYLPRPRPPRRKYNR]				MIC [1]: 1.68 µM (≈ 4 µg/mL); MIC [2]: 13.4 µM (≈ 32 µg/mL); MIC (Escherichia coli UB1005): 0.544 µM (≈ 1.3 µg/mL)

Continued, in another order:

MIC (Escherichia coli)	MIC (Bacillus cereus)	MIC (Pseudomonas aeruginosa)	Compound	also measured
30.7 µM (≈ 64 µg/mL)	≥ 123 µM		CC[C@H](C)[C@H](NC(=O)[C@@H](NC(=O)[C@H](CCCCN)NC(=O)[C@H](C)NC(=O)[C@H](CC(C)C)NC(=O)[C@H](CCCCN)NC(=O)[C@H](CCCCN)NC(=O)CN)[C@@H](C)O)C(=O)N[C@@H](C)C(=O)N[C@@H](CCCCN)C(=O)N[C@@H](CCC(=O)O)C(=O)N[C@H](C(=O)N[C@@H](C)C(=O)N[C@@H](CCCCN)C(=O)N[C@@H](CCC(N)=O)C(=O)NCC(=O)N[C@@H](C)C(=O)N[C@@H](CCCCN)C(=O)N[C@@H](Cc1ccccc1)C(=O)N[C@@H](C)C(=O)O)C(C)C [GKKLAKTIAKEVAKQGAKFA]	
5.3 µM (≈ 10.5 µg/mL)		21.2 µM (≈ 42 µg/mL)	CC[C@H](C)[C@H](NC(=O)[C@H](C)NC(=O)[C@H](CC(C)C)NC(=O)[C@H](CCCCN)NC(=O)[C@H](CC(C)C)NC(=O)[C@@H](NC(=O)[C@@H](NC(=O)[C@@H](N)CCCCN)[C@@H](C)CC)[C@@H](C)O)C(=O)N[C@@H](CCCCN)C(=O)N[C@@H](C)C(=O)N[C@@H](Cc1c[nH]c2ccccc12)C(=O)N[C@@H](CCCCN)C(=O)N[C@@H](CC(C)C)C(=O)N[C@@H](C)C(=O)N[C@@H](CC(C)C)C(=O)N[C@@H](CCCCN)C(=O)N[C@@H](C)C(=O)N[C@@H](C)C(N)=O [KITLKLAIKAWKLALKAA]	MIC (Staphylococcus aureus): 5.3 µM (≈ 10.5 µg/mL)
		10.1 µM (≈ 25 µg/mL)	CC[C@H](C)[C@H](NC(=O)[C@H](Cc1ccccc1)NC(=O)[C@H](CO)NC(=O)[C@H](CCCCN)NC(=O)[C@H](Cc1c[nH]c2ccccc12)NC(=O)[C@@H](N)CCCCN)C(=O)N[C@@H](CCCCN)C(=O)N[C@@H](CCCCN)C(=O)N[C@@H](CC(C)C)C(=O)N[C@H](C(=O)N[C@@H](CC(=O)O)C(=O)N[C@@H](CCCCN)C(=O)N[C@@H](Cc1ccccc1)C(=O)N[C@@H](CC(C)C)C(=O)N[C@@H](Cc1cnc[nH]1)C(=O)N[C@@H](CO)C(=O)N[C@@H](C)C(=O)N[C@@H](CCCCN)C(=O)N[C@@H](CCCCN)C(=O)N[C@@H](Cc1ccccc1)C(N)=O)[C@@H](C)O [KWKSFIKKLTDKFLHSAKKF]	
		2.63 µM (≈ 6.25 µg/mL)	CC[C@H](C)[C@H](NC(=O)[C@H](Cc1ccccc1)NC(=O)[C@H](CO)NC(=O)[C@H](CCCCN)NC(=O)[C@H](Cc1c[nH]c2ccccc12)NC(=O)[C@@H](N)CCCCN)C(=O)N[C@@H](CCCCN)C(=O)N[C@@H](CCCCN)C(=O)N[C@@H](CC(C)C)C(=O)N[C@H](C(=O)N[C@@H](CO)C(=O)N[C@@H](CCCCN)C(=O)N[C@@H](C)C(=O)N[C@@H](CC(C)C)C(=O)N[C@@H](Cc1cnc[nH]1)C(=O)N[C@@H](CO)C(=O)N[C@@H](C)C(=O)N[C@@H](CCCCN)C(=O)N[C@@H](CCCCN)C(=O)N[C@@H](Cc1ccccc1)C(N)=O)[C@@H](C)O [KWKSFIKKLTSKALHSAKKF]	
> 120 µM	≥ 120 µM		CSCC[C@H](N)C(=O)N[C@H](C(=O)N[C@H](C(=O)N[C@@H](Cc1ccccc1)C(=O)N[C@@H](CO)C(=O)N[C@H](C(=O)N1CCC[C@H]1C(=O)N[C@@H](CCCCN)C(=O)N[C@@H](Cc1ccccc1)C(=O)N[C@@H](CCCCN)C(=O)N[C@@H](CO)C(=O)N[C@H](C(=O)N[C@H](C(=O)N[C@@H](C)C(=O)N[C@@H](CCCCN)C(=O)N[C@@H](CC(C)C)C(=O)N[C@@H](CC(C)C)C(=O)N[C@@H](CO)C(=O)N[C@@H](CO)C(=O)N[C@@H](C)C(=O)O)C(C)C)[C@@H](C)O)C(C)C)C(C)C)C(C)C [MVVFSVPKFKSTVAKLLSSA]	
> 130 µM	≥ 130 µM		CC[C@H](C)[C@H](NC(=O)[C@@H](NC(=O)[C@H](C)NC(=O)[C@@H]1CCCN1C(=O)[C@@H](NC(=O)[C@@H](NC(=O)[C@H](CCCCN)NC(=O)[C@H](CO)NC(=O)[C@H](C)NC(=O)[C@H](CC(C)C)NC(=O)[C@H](CCCN=C(N)N)NC(=O)CNC(=O)[C@H](CC(C)C)NC(=O)[C@H](C)NC(=O)[C@@H](N)CO)C(C)C)C(C)C)C(C)C)C(=O)NCC(=O)N[C@@H](CCCCN)C(=O)N[C@H](C(=O)N[C@H](C(=O)N[C@H](C(=O)O)[C@@H](C)O)[C@@H](C)O)C(C)C [SALGRLASKVVPAVIGKVTT]	
> 124 µM	≥ 124 µM		CC[C@H](C)[C@H](NC(=O)[C@H](CCCCN)NC(=O)[C@H](Cc1ccccc1)NC(=O)[C@H](CC(C)C)NC(=O)[C@@H]1CCCN1C(=O)[C@H](CO)NC(=O)[C@@H]1CCCN1C(=O)[C@@H](NC(=O)[C@@H](NC(=O)[C@H](C)NC(=O)[C@@H](NC(=O)CNC(=O)[C@H](CCCCN)NC(=O)CNC(=O)[C@H](C)NC(=O)[C@H](CCCN=C(N)N)NC(=O)[C@H](CCCCN)NC(=O)[C@@H](N)C(C)C)C(C)C)C(C)C)C(C)C)C(=O)N[C@H](C(=O)N[C@H](C(=O)O)C(C)C)C(C)C [VKRAGKGVAVVPSPLFKIVV]	
